Data: PubChem BioAssay (NCI)
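48-hour exposure; five concentrations; linearly interpolated endpoints. TGI: concentration producing complete growth inhibition.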

Columns and labels:
Experiment in all cases: NCI-60 cell line screen, 48 h
MOLT-4 leukemia = tested on: MOLT-4 leukemia
OVCAR-4 ovarian = tested on: OVCAR-4 ovarian
SK-MEL-28 melanoma = tested on: SK-MEL-28 melanoma
M19-MEL melanoma = tested on: M19-MEL melanoma
SR leukemia = tested on: SR leukemia
LXFL 529 NSCLC = tested on: LXFL 529 NSCLC
DMS 114 small cell lung = tested on: DMS 114 small cell lung
OVCAR-3 ovarian = tested on: OVCAR-3 ovarian
HT29 colon = tested on: HT29 colon
SNB-78 CNS = tested on: SNB-78 CNS
SF-539 CNS = tested on: SF-539 CNS
DMS 273 small cell lung = tested on: DMS 273 small cell lung
T-47D breast = tested on: T-47D breast
PC-3 prostate = tested on: PC-3 prostate
EKVX NSCLC = tested on: EKVX NSCLC
HL-60(TB) leukemia = tested on: HL-60(TB) leukemia
MDA-MB-231 breast = tested on: MDA-MB-231 breast
DU-145 prostate = tested on: DU-145 prostate
COLO 205 colon = tested on: COLO 205 colon
NCI-H23 lung = tested on: NCI-H23 lung
HOP-62 NSCLC = tested on: HOP-62 NSCLC
UACC-257 melanoma = tested on: UACC-257 melanoma
KM20L2 colon = tested on: KM20L2 colon
SF-268 CNS = tested on: SF-268 CNS
HOP-18 NSCLC = tested on: HOP-18 NSCLC
NCI-H226 lung = tested on: NCI-H226 lung
786-0 renal = tested on: 786-0 renal
RXF-631 renal = tested on: RXF-631 renal
MCF7 breast = tested on: MCF7 breast
SNB-75 CNS = tested on: SNB-75 CNS
A498 renal = tested on: A498 renal
RXF 393 renal = tested on: RXF 393 renal
SW-620 colon = tested on: SW-620 colon
HOP-92 NSCLC = tested on: HOP-92 NSCLC
NCI/ADR-RES ovarian = tested on: NCI/ADR-RES ovarian
NCI-H460 lung = tested on: NCI-H460 lung
LOX IMVI melanoma = tested on: LOX IMVI melanoma
TK-10 renal = tested on: TK-10 renal
IGROV1 ovarian = tested on: IGROV1 ovarian
SN12C renal = tested on: SN12C renal
U251 CNS = tested on: U251 CNS
SK-MEL-5 melanoma = tested on: SK-MEL-5 melanoma
M14 melanoma = tested on: M14 melanoma
ACHN renal = tested on: ACHN renal
SK-MEL-2 melanoma = tested on: SK-MEL-2 melanoma
A549 NSCLC = tested on: A549 NSCLC
MALME-3M melanoma = tested on: MALME-3M melanoma
SF-295 CNS = tested on: SF-295 CNS
CCRF-CEM leukemia = tested on: CCRF-CEM leukemia
HS 578T breast = tested on: HS 578T breast
RPMI-8226 leukemia = tested on: RPMI-8226 leukemia
SNB-19 CNS = tested on: SNB-19 CNS
UACC-62 melanoma = tested on: UACC-62 melanoma
KM12 colon = tested on: KM12 colon
XF 498 CNS = tested on: XF 498 CNS
BT-549 breast = tested on: BT-549 breast
HCT-15 colon = tested on: HCT-15 colon
CAKI-1 renal = tested on: CAKI-1 renal
K-562 leukemia = tested on: K-562 leukemia
SK-OV-3 ovarian = tested on: SK-OV-3 ovarian
OVCAR-5 ovarian = tested on: OVCAR-5 ovarian
HCT-116 colon = tested on: HCT-116 colon
HCC-2998 colon = tested on: HCC-2998 colon
UO-31 renal = tested on: UO-31 renal
DLD-1 colon = tested on: DLD-1 colon
MDA-MB-435 = tested on: MDA-MB-435
OVCAR-8 ovarian = tested on: OVCAR-8 ovarian
NCI-H522 lung = tested on: NCI-H522 lung

CN(C)CC1CCCC1=O (centres undefined)
TGI (MOLT-4 leukemia): 0.875 µM
TGI (OVCAR-4 ovarian): 5.58 µM
TGI (SK-MEL-28 melanoma): 6.48 µM
TGI (M19-MEL melanoma): 2.33 µM
TGI (SR leukemia): 0.289 µM
TGI (LXFL 529 NSCLC): 1.4 µM
TGI (DMS 114 small cell lung): 2.33 µM
TGI (OVCAR-3 ovarian): 2.91 µM
TGI (HT29 colon): 2.06 µM
TGI (SNB-78 CNS): 6.12 µM
TGI (SF-539 CNS): 14.8 µM
TGI (DMS 273 small cell lung): 3.28 µM
TGI (T-47D breast): 15.2 µM
TGI (PC-3 prostate): 22.6 µM
TGI (EKVX NSCLC): 3.59 µM
TGI (HL-60(TB) leukemia): 0.374 µM
TGI (MDA-MB-231 breast): 7.06 µM
TGI (DU-145 prostate): > 46.9 µM
TGI (COLO 205 colon): 1.84 µM
TGI (NCI-H23 lung): 11.7 µM
TGI (HOP-62 NSCLC): 31.3 µM
TGI (UACC-257 melanoma): 3.5 µM
TGI (KM20L2 colon): 5.32 µM
TGI (SF-268 CNS): 13.6 µM
TGI (HOP-18 NSCLC): 3.16 µM
TGI (NCI-H226 lung): 30.5 µM
TGI (786-0 renal): 16 µM
TGI (RXF-631 renal): 0.377 µM
TGI (MCF7 breast): 7.03 µM
TGI (SNB-75 CNS): 9.6 µM
TGI (A498 renal): 27.3 µM
TGI (RXF 393 renal): 6.63 µM
TGI (SW-620 colon): 0.517 µM
TGI (HOP-92 NSCLC): 2.97 µM
TGI (NCI/ADR-RES ovarian): 55.7 µM
TGI (NCI-H460 lung): 34.6 µM
TGI (LOX IMVI melanoma): 4 µM
TGI (TK-10 renal): 8.04 µM
TGI (IGROV1 ovarian): 21.5 µM
TGI (SN12C renal): 2.85 µM
TGI (U251 CNS): 14.9 µM
TGI (SK-MEL-5 melanoma): 6.71 µM
TGI (M14 melanoma): 3.46 µM
TGI (ACHN renal): 7.08 µM
TGI (SK-MEL-2 melanoma): 19.3 µM
TGI (A549 NSCLC): 49 µM
TGI (MALME-3M melanoma): 2.57 µM
TGI (SF-295 CNS): 35.8 µM
TGI (CCRF-CEM leukemia): 0.533 µM
TGI (HS 578T breast): 56.2 µM
TGI (RPMI-8226 leukemia): 1.93 µM
TGI (SNB-19 CNS): 50 µM
TGI (UACC-62 melanoma): 11.2 µM
TGI (KM12 colon): 5.85 µM
TGI (XF 498 CNS): 2.11 µM
TGI (BT-549 breast): 13.8 µM
TGI (HCT-15 colon): 2.56 µM
TGI (CAKI-1 renal): 0.373 µM
TGI (K-562 leukemia): 0.549 µM
TGI (SK-OV-3 ovarian): 28.6 µM
TGI (OVCAR-5 ovarian): 12.5 µM
TGI (HCT-116 colon): 2.78 µM
TGI (HCC-2998 colon): 4.44 µM
TGI (UO-31 renal): 22.9 µM
TGI (DLD-1 colon): 1.03 µM
TGI (MDA-MB-435): 8.77 µM
TGI (OVCAR-8 ovarian): 8.94 µM

[N-]=[N+]=C1C(=O)C2CC3CC(C2)CC1C3
TGI (MOLT-4 leukemia): > 100 µM
TGI (OVCAR-4 ovarian): > 100 µM
TGI (SK-MEL-28 melanoma): > 100 µM
TGI (M19-MEL melanoma): > 100 µM
TGI (SR leukemia): > 100 µM
TGI (LXFL 529 NSCLC): > 100 µM
TGI (DMS 114 small cell lung): > 100 µM
TGI (OVCAR-3 ovarian): > 100 µM
TGI (HT29 colon): > 100 µM
TGI (SNB-78 CNS): > 100 µM
TGI (SF-539 CNS): > 100 µM
TGI (DMS 273 small cell lung): > 100 µM
TGI (EKVX NSCLC): > 100 µM
TGI (HL-60(TB) leukemia): > 100 µM
TGI (COLO 205 colon): > 100 µM
TGI (NCI-H23 lung): > 100 µM
TGI (HOP-62 NSCLC): > 100 µM
TGI (UACC-257 melanoma): > 100 µM
TGI (KM20L2 colon): > 100 µM
TGI (SF-268 CNS): > 100 µM
TGI (HOP-18 NSCLC): > 100 µM
TGI (NCI-H226 lung): > 100 µM
TGI (786-0 renal): > 100 µM
TGI (SNB-75 CNS): > 100 µM
TGI (A498 renal): > 100 µM
TGI (RXF 393 renal): > 100 µM
TGI (SW-620 colon): > 100 µM
TGI (HOP-92 NSCLC): > 100 µM
TGI (NCI-H460 lung): > 100 µM
TGI (LOX IMVI melanoma): > 100 µM
TGI (TK-10 renal): > 100 µM
TGI (IGROV1 ovarian): > 100 µM
TGI (SN12C renal): > 100 µM
TGI (U251 CNS): > 100 µM
TGI (SK-MEL-5 melanoma): > 100 µM
TGI (M14 melanoma): > 100 µM
TGI (ACHN renal): > 100 µM
TGI (SK-MEL-2 melanoma): > 100 µM
TGI (A549 NSCLC): > 100 µM
TGI (MALME-3M melanoma): > 100 µM
TGI (SF-295 CNS): > 100 µM
TGI (CCRF-CEM leukemia): > 100 µM
TGI (RPMI-8226 leukemia): > 100 µM
TGI (SNB-19 CNS): > 100 µM
TGI (UACC-62 melanoma): > 100 µM
TGI (KM12 colon): > 100 µM
TGI (XF 498 CNS): > 100 µM
TGI (HCT-15 colon): > 100 µM
TGI (CAKI-1 renal): > 100 µM
TGI (K-562 leukemia): > 100 µM
TGI (NCI-H522 lung): > 100 µM
TGI (SK-OV-3 ovarian): > 100 µM
TGI (OVCAR-5 ovarian): > 100 µM
TGI (HCT-116 colon): > 100 µM
TGI (HCC-2998 colon): > 100 µM
TGI (UO-31 renal): > 100 µM
TGI (DLD-1 colon): > 100 µM
TGI (OVCAR-8 ovarian): > 100 µM

O=P1(Oc2ccccc2)C(c2ccccc2)C(c2ccccc2)=NN1c1ccccc1 (centres undefined)
TGI (MOLT-4 leukemia): 57 µM
TGI (OVCAR-4 ovarian): 86.3 µM
TGI (SK-MEL-28 melanoma): 64.2 µM
TGI (M19-MEL melanoma): 54.9 µM
TGI (LXFL 529 NSCLC): 45.7 µM
TGI (DMS 114 small cell lung): 43.8 µM
TGI (OVCAR-3 ovarian): 42.2 µM
TGI (HT29 colon): 33 µM
TGI (SNB-78 CNS): > 100 µM
TGI (SF-539 CNS): 35.9 µM
TGI (DMS 273 small cell lung): 89.3 µM
TGI (EKVX NSCLC): > 100 µM
TGI (HL-60(TB) leukemia): 47 µM
TGI (COLO 205 colon): 36.4 µM
TGI (NCI-H23 lung): 51.9 µM
TGI (HOP-62 NSCLC): 71.3 µM
TGI (UACC-257 melanoma): 75.8 µM
TGI (KM20L2 colon): 44.9 µM
TGI (SF-268 CNS): 93.6 µM
TGI (HOP-18 NSCLC): > 100 µM
TGI (NCI-H226 lung): 55 µM
TGI (786-0 renal): > 100 µM
TGI (RXF-631 renal): > 100 µM
TGI (SNB-75 CNS): > 100 µM
TGI (A498 renal): 84.6 µM
TGI (RXF 393 renal): 40.7 µM
TGI (SW-620 colon): 53.1 µM
TGI (NCI-H460 lung): 60.9 µM
TGI (LOX IMVI melanoma): 31.6 µM
TGI (TK-10 renal): > 100 µM
TGI (IGROV1 ovarian): 69.9 µM
TGI (SN12C renal): 94.3 µM
TGI (U251 CNS): 42.2 µM
TGI (M14 melanoma): 39.6 µM
TGI (ACHN renal): 77.6 µM
TGI (SK-MEL-2 melanoma): 31.6 µM
TGI (A549 NSCLC): 93.8 µM
TGI (MALME-3M melanoma): > 100 µM
TGI (SF-295 CNS): 89.5 µM
TGI (CCRF-CEM leukemia): > 100 µM
TGI (SNB-19 CNS): > 100 µM
TGI (UACC-62 melanoma): 35.3 µM
TGI (KM12 colon): 64.4 µM
TGI (XF 498 CNS): > 100 µM
TGI (HCT-15 colon): 44.7 µM
TGI (CAKI-1 renal): 65 µM
TGI (K-562 leukemia): 66 µM
TGI (NCI-H522 lung): 36.4 µM
TGI (SK-OV-3 ovarian): 54.4 µM
TGI (OVCAR-5 ovarian): 50.2 µM
TGI (HCT-116 colon): 31.3 µM
TGI (HCC-2998 colon): 89.8 µM
TGI (DLD-1 colon): 34.3 µM
TGI (OVCAR-8 ovarian): > 100 µM
